In assay [1] the test system is P. aeruginosa. The experiment in a line: Minimum bactericidal concentration. The conditions noted are these: Pseudomonas aeruginosa. The assay is classed as cell-based, Pseudomonas aeruginosa.
The test system of assay [2] is JST78. The experiment in a line: MIC on environmental MDR isolate (microdilution). The conditions noted are these: Escherichia coli.
Assay [3] concerns S. aureus 33,591. The experiment in a line: In vivo antibacterial efficacy in infected larvae. The conditions noted are these: PS9 1000 μg/mL 30 min post-infection, up to 72 h.

Data on one compound can be found in paper PMC9405123, “Design, Synthesis and Mechanistic Studies of Novel Isatin-Pyrazole Hydrazone Conjugates as Selective and Potent Bacterial MetAP Inhibitors” (Antibiotics, 2022).

As a reminder, the MBC is the lowest tested concentration that kills the bacteria rather than only halting them. In general, MIC refers to the least concentration at which growth counts as inhibited. A low value points to inhibition by little substance.

Converted amounts (≈) assume the structure as drawn.

For `O=C1Nc2ccc(F)cc2/C1=N\NC(=O)c1cc(-c2cccc(Br)c2)n[nH]1` [PS9, (E)-3-(3-Bromophenyl)-N′-(5-Fluoro-2-Oxoindolin-3-Ylidene)-1H-Pyrazole-5-Carbohydrazide], the MBC in assay [1] was determined as 16 µg/mL (≈ 37.4 µM). The compound further registered an MIC in assay [2] of 1000 µg/mL (≈ 2340 µM). The “effect on death of infected larvae” value in assay [3] was “does not delay this”.
